`Cc1cc(/C=C/C#N)cc(C)c1Nc1nc(Nc2ccc(C#N)cc2)ncc1CNCc1cccnc1` returned a melting point of 236 °C.
`Cc1cc(/C=C/C#N)cc(C)c1Nc1nc(Nc2ccc(C#N)cc2)ncc1NCc1cccnc1`: the melting point came out at 140 °C.
On to `CCc1cscn1`, for which the melting point was > 250 °C.
